In patent US20090018111A1, “Novel Antimicrobial Medicament” (priority 2004, published 2009):

Experiments:
E. coli ML1410 RP4 = assay: microbe, parasite or virus in culture; type: cell-based, Escherichia coli; conditions: alone
Protocol: (§1) The antibacterial activities were tested against various 18 bacteria (27 standard strains) which are representative bacteria caused clinically infectious disease (Staphylococcus aureus 3 strains, Staphylococcus epidermidis 1 strain, Micrococcus luteus 1 strain, Streptococcus pyogenes 1 strain, Enterococcus faecalis 1 strain, Enterococcus faecium 1 strain, Bacillus subtilis 1 strain, Escherichia coli 3 strains, Klebsiella pneumoniae 1 strain, Proteus mirabilis 1 strain, Proteus vulgaris 2 strains, Pseudomonas aeruginosa 3 strains, Serratia marcescens 2 strains, Enterobacter aerogenes 1 strain, Stenotrophomonas maltophilia 1 strain, Enterobacter cloacae 1 strain, Citrobacter freundii 1 strain, Moraxella catarrhalis 2 strains).
(§2) According to the standard method of Japan Chemotherapeutic Society (Chemotherapy, vol. […], p 76-79 (1981)) the test was carried out using the agar dilution method. After dissolving test samples in distilled water, agar medium containing the test samples was prepared in such a manner that the final concentration became twice serial dilution by pouring serially diluted combination drug solution or a single drug solution into agar medium. As agar medium was used Mueller Hinton Agar medium (MHA). Then, each strain was cultivated over night at 37° C. in an incubator and suspended in buffered saline solution with gelatin (BSG) in the concentration of about 10^6 CFU/ml. The suspension (about 5 μl) containing test strains was inoculated to the medium containing the test samples by Micro Planter.
(§3) When the sample is subjected to sensitivity test, this mixed solution was diluted by twice serial dilution method.
(§4) Furthermore, when the drug is solely used, each test sample was used as it is, and diluted by twice serial dilution method from the maximum concentration to the minimum concentration.
(§5) FIC index based on MIC value was calculated. […] Namely, when FIC index calculated by the following formula is equal or less than 1, the enhanced effect of the combination drug in said ratio is considered as positive. When FIC index is over 1, the enhanced effect of the combination drug in said ratio is considered as negative.
(§6) Formula of FIC index: FIC index=(MIC of Drug A in combination/MIC of Drug A alone)+(MIC of Drug B in combination/MIC of Drug B alone) N.C. in tables means being not calculated.

C. freundii GN346 = assay: Sensitivity test (agar dilution); type: cell-based, Citrobacter freundii
Protocol: as §1, §2, §3, §4, §5, §6

M. luteus ATCC9341 = assay: Sensitivity test (agar dilution); type: cell-based, Micrococcus luteus
Protocol: as §1, §2, §3, §4, §5, §6

P. aeruginosa IFO3451 = assay: Sensitivity test (agar dilution); type: cell-based, Pseudomonas aeruginosa
Protocol: as §1, §2, §3, §4, §5, §6

P. aeruginosa TL-2666 = assay: Sensitivity test (agar dilution); type: cell-based, Pseudomonas aeruginosa
Protocol: as §1, §2, §3, §4, §5, §6

P. aeruginosa TL-2667 = assay: Sensitivity test (agar dilution); type: cell-based, Pseudomonas aeruginosa
Protocol: as §1, §2, §3, §4, §5, §6

E. cloacae GN7471 = assay: Sensitivity test (agar dilution); type: cell-based, Enterobacter cloacae
Protocol: as §1, §2, §3, §4, §5, §6

E. faecalis ATCC19433 = assay: Sensitivity test (agar dilution); type: cell-based, Enterococcus faecalis
Protocol: as §1, §2, §3, §4, §5, §6

E. coli ML1410 = assay: Sensitivity test (agar dilution); type: cell-based, Escherichia coli; conditions: alone
Protocol: as §1, §2, §3, §4, §5, §6

E. coli NIHJ JC-2 = assay: Sensitivity test (agar dilution); type: cell-based, Escherichia coli
Protocol: as §1, §2, §3, §4, §5, §6

S. maltophilia IID1275 = assay: Sensitivity test (agar dilution); type: cell-based, Stenotrophomonas maltophilia
Protocol: as §1, §2, §3, §4, §5, §6

S. epidermidis IAM1296 = assay: Sensitivity test (agar dilution); type: cell-based, Staphylococcus epidermidis
Protocol: as §1, §2, §3, §4, §5, §6

E. aerogenes ATCC13048 = assay: Sensitivity test (agar dilution); type: cell-based, Enterobacter aerogenes
Protocol: as §1, §2, §3, §4, §5, §6

[1] = system: 18 bacteria (27 standard strains); assay: Sensitivity test, combination effect over the standard strains; type: cell-based; conditions: in combination with compound 1, standard strains
Protocol: as §1, §2, §3, §5, §6

P. mirabiris GN2425 = assay: Sensitivity test (agar dilution); type: cell-based, Proteus mirabilis
Protocol: as §1, §2, §3, §4, §5, §6

Str. pyogenes Cook = assay: Sensitivity test (agar dilution); type: cell-based, Streptococcus pyogenes
Protocol: as §1, §2, §3, §4, §5, §6

K. pneumoniae ATCC10031 = assay: Sensitivity test (agar dilution); type: cell-based, Klebsiella pneumoniae
Protocol: as §1, §2, §3, §4, §5, §6

B. subtilis ATCC6633 = assay: Sensitivity test (agar dilution); type: cell-based, Bacillus subtilis
Protocol: as §1, §2, §3, §4, §5, §6

S. marcescens X 100 = assay: Sensitivity test (agar dilution); type: cell-based, Serratia marcescens
Protocol: as §1, §2, §3, §4, §5, §6

S. marcescens GN6473 = assay: Sensitivity test (agar dilution); type: cell-based, Serratia marcescens
Protocol: as §1, §2, §3, §4, §5, §6

E. faecium ATCC19434 = assay: Sensitivity test (agar dilution); type: cell-based, Enterococcus faecium
Protocol: as §1, §2, §3, §4, §5, §6

P. vulgaris GN7919 = assay: Sensitivity test (agar dilution); type: cell-based, Proteus vulgaris
Protocol: as §1, §2, §3, §4, §5, §6

P. vurgalis OX-19 = assay: Sensitivity test (agar dilution); type: cell-based, Proteus vulgaris
Protocol: as §1, §2, §3, §4, §5, §6

[2] = system: S. aureus MS94088 (hetero-MRSA); assay: Sensitivity test (agar dilution); type: cell-based, Staphylococcus aureus
Protocol: as §1, §2, §3, §4, §5, §6

S. aureus 209P = assay: Sensitivity test (agar dilution); type: cell-based, Staphylococcus aureus
Protocol: as §1, §2, §3, §4, §5, §6

[3] = system: S. aureus SP-7928 (homo-MRSA); assay: Sensitivity test (agar dilution); type: cell-based, Staphylococcus aureus
Protocol: as §1, §2, §3, §4, §5, §6

M. catarrhalis ATCC25238 = assay: Sensitivity test (agar dilution); type: cell-based, Moraxella catarrhalis
Protocol: as §1, §2, §3, §4, §5, §6

M. catarrhalis ATCC8176 = assay: Sensitivity test (agar dilution); type: cell-based, Moraxella catarrhalis
Protocol: as §1, §2, §3, §4, §5, §6

Compound: C[C@@H](O)[C@H]1C(=O)N2C(C(=O)O)=C(SCCN=CN)C[C@H]12 [IPM, imipenem]
- MIC (E. coli ML1410 RP4): 0.5 µg/mL
- MIC (C. freundii GN346; Concomitant (IPM:SM = 1:1)): 0.25 µg/mL
- MIC (C. freundii GN346; alone): 0.5 µg/mL
- MIC (M. luteus ATCC9341; Concomitant (IPM:SM = 1:1)): 0.004 µg/mL
- MIC (M. luteus ATCC9341; alone): 0.024 µg/mL
- MIC (P. aeruginosa IFO3451; Concomitant (IPM:SM = 1:1)): 0.5 µg/mL
- MIC (P. aeruginosa IFO3451; alone): 1 µg/mL
- MIC (P. aeruginosa TL-2666; Concomitant (IPM:SM = 1:1)): 1 µg/mL
- MIC (P. aeruginosa TL-2666; alone): 2 µg/mL
- MIC (P. aeruginosa TL-2667; Concomitant (IPM:SM = 1:1)): 8 µg/mL
- MIC (P. aeruginosa TL-2667; alone): 8 µg/mL
- MIC (E. cloacae GN7471; Concomitant (IPM:SM = 1:1)): 0.125 µg/mL
- MIC (E. cloacae GN7471; alone): 0.125 µg/mL
- MIC (E. faecalis ATCC19433; Concomitant (IPM:SM = 1:1)): 0.5 µg/mL
- MIC (E. faecalis ATCC19433; alone): 1 µg/mL
- MIC (E. coli ML1410): 0.25 µg/mL
- MIC (E. coli NIHJ JC-2; Concomitant (IPM:SM = 1:1)): 0.063 µg/mL
- MIC (E. coli NIHJ JC-2; alone): 0.125 µg/mL
- MIC (S. maltophilia IID1275; Concomitant (IPM:SM = 1:1)): >32 µg/mL
- MIC (S. maltophilia IID1275; alone): >32 µg/mL
- MIC (S. epidermidis IAM1296; Concomitant (IPM:SM = 1:1)): 0.016 µg/mL
- MIC (S. epidermidis IAM1296; alone): 0.25 µg/mL
- MIC (E. aerogenes ATCC13048; Concomitant (IPM:SM = 1:1)): 0.125 µg/mL
- MIC (E. aerogenes ATCC13048; alone): 0.25 µg/mL
- combination effect [1]: the combination effect was recognized
- MIC (P. mirabiris GN2425; Concomitant (IPM:SM = 1:1)): 0.25 µg/mL
- MIC (P. mirabiris GN2425; alone): 1 µg/mL
- MIC (Str. pyogenes Cook; Concomitant (IPM:SM = 1:1)): ≦0.002 μg/ml
- MIC (Str. pyogenes Cook; alone): ≦0.002 μg/ml
- MIC (K. pneumoniae ATCC10031; Concomitant (IPM:SM = 1:1)): 0.031 µg/mL
- MIC (K. pneumoniae ATCC10031; alone): 0.125 µg/mL
- MIC (B. subtilis ATCC6633; Concomitant (IPM:SM = 1:1)): ≦0.002 μg/ml
- MIC (B. subtilis ATCC6633; alone): 0.016 µg/mL
- MIC (S. marcescens X 100; Concomitant (IPM:SM = 1:1)): 0.125 µg/mL
- MIC (S. marcescens X 100; alone): 0.25 µg/mL
- MIC (S. marcescens GN6473; Concomitant (IPM:SM = 1:1)): 0.25 µg/mL
- MIC (S. marcescens GN6473; alone): 0.25 µg/mL
- MIC (E. faecium ATCC19434; Concomitant (IPM:SM = 1:1)): 0.125 µg/mL
- MIC (E. faecium ATCC19434; alone): 4 µg/mL
- MIC (P. vulgaris GN7919; Concomitant (IPM:SM = 1:1)): 0.5 µg/mL
- MIC (P. vulgaris GN7919; alone): 1 µg/mL
- MIC (P. vurgalis OX-19; Concomitant (IPM:SM = 1:1)): 0.063 µg/mL
- MIC (P. vurgalis OX-19; alone): 1 µg/mL
- MIC ([2]; Concomitant (IPM:SM = 1:1)): 0.25 µg/mL
- MIC ([2]; alone): 0.125 µg/mL
- MIC (S. aureus 209P; Concomitant (IPM:SM = 1:1)): 0.004 µg/mL
- MIC (S. aureus 209P; alone): 0.008 µg/mL
- MIC ([3]; Concomitant (IPM:SM = 1:1)): 2 µg/mL
- MIC ([3]; alone): >32 µg/mL
- MIC (M. catarrhalis ATCC25238; Concomitant (IPM:SM = 1:1)): ≦0.002 μg/ml
- MIC (M. catarrhalis ATCC25238; alone): 0.008 µg/mL
- MIC (M. catarrhalis ATCC8176; Concomitant (IPM:SM = 1:1)): ≦0.002 μg/ml
- MIC (M. catarrhalis ATCC8176; alone): 0.008 µg/mL
